In patent US4661491A, “Alfuzosine compositions and use” (Synthelabo, priority 1985, dated 1987):

How the values were obtained:
α-adrenergic receptors = molecular target: T1, α-adrenergic receptors (Oryctolagus cuniculus, UniProt O02824); test: Phenylephrine-induced contraction of rabbit trigone muscle and urethra preparations; assay type: biochemical
T1 construct: The bladder and urethra are rapidly removed and placed in lukewarm Krebs solution; from tissue; host or cells: rabbit bladder trigone muscle and urethra ring, isolated organ
T1 sequence (O02824 1-466): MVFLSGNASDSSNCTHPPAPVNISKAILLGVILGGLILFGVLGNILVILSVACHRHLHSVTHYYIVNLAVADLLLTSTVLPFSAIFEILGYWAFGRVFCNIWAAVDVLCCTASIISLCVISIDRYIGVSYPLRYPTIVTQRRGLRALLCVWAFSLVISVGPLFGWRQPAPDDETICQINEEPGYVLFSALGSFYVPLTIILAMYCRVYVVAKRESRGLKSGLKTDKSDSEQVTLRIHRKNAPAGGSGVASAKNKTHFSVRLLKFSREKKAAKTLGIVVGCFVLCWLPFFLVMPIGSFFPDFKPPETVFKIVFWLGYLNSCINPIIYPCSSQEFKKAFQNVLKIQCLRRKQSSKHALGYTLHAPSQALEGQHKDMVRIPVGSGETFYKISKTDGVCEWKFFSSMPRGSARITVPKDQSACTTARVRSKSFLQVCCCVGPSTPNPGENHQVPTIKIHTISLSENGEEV
Protocol: Male rabbits (CEGAN) weighing 3 to 4 kg are sacrificed by exsanguination and cervical dislocation.
The bladder and urethra are rapidly removed and placed in lukewarm Krebs solution containing bicarbonate.
The composition of this Krebs medium is as follows, in mM: NaCl 114; KCl 4.7; CaCl2 2.5; KH2 PO4 1.2; MgSO4 1.2; NaHCO3 25.0; glucose 11.7; ascorbic acid 1.1. Propranolol (1.0 μM) is added into the Krebs medium to block the β-adrenergic receptors.
The bladder is opened transversely and the "trigone" region of the muscle, located on the dorsal surface of the bladder and between the two ureters, is dissected out.
A 5 mm ring of urethra, from the region situated between the base of the bladder and the prostate, is also prepared.
The portions of trigone muscle and urethra are washed under a tension of 1 g in Krebs medium.
The contraction-response curve to cumulated concentrations of phenylephrine is determined.
Additions of the agonist are performed every 5 min. The tissues are washed until the original tension is reestablished, and are then incubated for 30 min with alfuzosine. A second response curve to phenylephrine is determined in the presence of alfuzosine.
The response curves to concentrations of phenylephrine in the presence or absence of alfuzosine are expressed as a percentage of the maximum response obtained relative to the control curve.
The power of alfuzosine is calculated in the form of pA2 by Schild's method, where pA2 =negative logarithm of the molar concentration of alfuzosine which causes a rightward shift of the response curve to the agonist.

[1] = Clinical study, sphincterometric measurements in patients with dysuria of neurological origin with urethral hypertonia; assay type: in vivo, human; conditions: 5 mg i.v. over 20 min; p<0.001
Protocol: By means of clinical studies, it has also been possible to show the efficacy of alfuzosine in patients suffering from dysuria of neurological origin with urethral hypertonia.
5 mg of alfuzosine are injected intravenously continuously for a period of 20 min. Sphincterometric measurements were made using an electronic micro-sensor, before and after the injection of the drug, at the bladder neck and at the striated sphincter of the posterior urethra.

[2] = Clinical study in paraplegics, micturition test; assay type: in vivo, human
Protocol: A clinical study was also performed in paraplegics.
The paraplegic, or spinal man, gives rise to an experimental model of the peripheral receptors, since he embodies a disconnection from the influence of the higher, diencephalic and cortical nerve centres.
Given the localization of the alpha-adrenergic receptors in the posterior urethra and the vesico-urethral segment or neck, alpha-adrenergic hypertonia is the source of dysuria and disturbances of micturition. The opening of the neck and the fall in the pressure gradient in the posterior urethra are the two conditions required for the production of effective micturition.
Alfuzosine was administered intravenously, and then orally if the first test is positive. 5 mg of alfuzosine are injected intravenously in the course of 20 min.
The test is considered to be positive if an initiation of micturition, that is to say, necessarily, opening of the neck, takes place.
For patients for whom the test is positive, the administration of alfuzosine was then performed orally at the rate of 9 mg/24 h/28 d.

shift of the response curve to phenylephrine (α-adrenergic receptors; alfuzosine 3.0 μM, 30 min incubation, trigone muscle and urethra): significant rightward parallel shift
Kb (α-adrenergic receptors; antagonism of phenylephrine contraction, read-out: pA2 (Schild analysis) (converted)): 89.1 nM
reduction in the maximum contractile effects of phenylephrine (α-adrenergic receptors; trigone muscle and urethra, 30 min): 20 to 30%
SMILES: COc1cc2nc(N(C)CCCNC(=O)C3CCCO3)nc(N)c2cc1OC (stereo not shown) [Alfuzosine]
pressure decrease at the bladder neck [1]: 44%
pressure decrease at the striated sphincter [1]: 39%
initiation of micturition under oral treatment ([2]; paraplegics positive in i.v. test, per os 9 mg/24 h/28 d): enabled micturition to be rendered easier to initiate
intra-urethral pressures after injection ([2]; paraplegics, 5 mg i.v. in 20 min): decrease significantly
